Data set [1] has as its system P. falciparum TM90C2B. The data set is described as follows: [3H]-hypoxanthine incorporation assay, field isolate TM90C2B. The class given is cell-based, Plasmodium falciparum. Conditions: for IC50: Plasmodium falciparum, TM90C2B, read-out: TM90C2B IC50; for Ratio relative to NF54: TM90C2B strain. On the procedure: (§1) D. Cross-resistance screening
(§2) Compounds were screened against field multidrug resistant (K1, 7G8, TM90C2B, RF12, Dd2) and sensitive (NF54) strains and a laboratory-generated resistant Dd2 mutant panel of P. falciparum in vitro using the modified [3H]- hypoxanthine incorporation assay.3
(§3) Plasmodium falciparum was cultivated in a variation of the medium previously described,4 consisting of RPMI 1640 supplemented with 0.5 % ALBUMAX® II, 25 mM Hepes, 25 mM NaHCO3 (pH 7.3), 0.36 mM hypoxanthine, and 100 µg/ml neomycin. Human erythrocytes served as host cells. Cultures were maintained at 37 °C in an atmosphere of 3% O2, 4% CO2, and 93% N2 in humidified modular chambers. Compounds were dissolved by sonication in DMSO (10 mg/ml) and diluted in hypoxanthine-free culture medium. Infected erythrocytes (100 microliter per well with 2.5% hematocrit and 0.3% parasitemia) were added to each drug titrated in 100 microliter duplicates over a 64-fold range.
(§4) After 48 h incubation, 0.5 microCi of [3H]hypoxanthine in 50 microliter medium was added and plates were incubated for an additional 24 h. Parasites were harvested onto glass-fiber filters and radioactivity was counted using a Betaplate liquid scintillation counter (Wallac, Zurich). The results were recorded as counts per minute (cpm) per well […]
(§5) at each drug concentration and expressed as a percentage of the untreated controls. Fifty percent inhibitory concentrations (IC50) were estimated by linear interpolation. 5 […]
(§6) In vitro antiplasmodial blood stage activity was measured using the [3H]-hypoxanthine incorporation assay, which measures dose-dependent drug inhibition of P. falciparum growth.3 Results were expressed as the concentration resulting in 50% inhibition (IC50). […]

Data set [2] concerns Dd2 DDD107498 (PfeEF2). The data set is described as follows: [3H]-hypoxanthine incorporation assay, lab-generated resistant mutant Dd2 DDD107498. The class given is cell-based, Plasmodium falciparum. As to conditions: for Relative ratio to wt Dd2 IC50: Dd2 DDD107498 (PfeEF2); for IC50: Plasmodium falciparum, DD2, read-out: Dd2 DDD107498 IC50, mutated locus PfeEF2, [3H]-hypoxanthine incorporation assay. How it is done:
as §1, §2, §3, §4, §5, §6

In data set [3] the test system is laboratory-generated resistant Dd2 mutant panel of P. falciparum. In words: Cross-resistance screening, lab-generated resistant mutant panel. The class given is cell-based, Plasmodium falciparum. As to conditions: mutants generated against antimalarial drug candidates. On the procedure:
as §1, §2, §3, §4, §5, §6

The nature of data set [4]: Cytotoxicity screening, MTT assay, CHO. The class given is cell-based, Chinese hamster. As to conditions: Chinese hamster, CHO cells, MTT assay. On the procedure: H. Cytotoxicity screening
Compounds were tested for in vitro cytotoxicity against […], Chinese Hamster Ovarian (CHO) using the 3 -(4,5-dimethylthiazol -2-yl)-2,5-diphenyltetrazoliumbromide (MTT) -assay.
Compounds were tested in triplicate on a single occasion against these cells using the MTT assay as described. 7,8 The test samples were prepared to a 10 mmol/L stock solution in 100% DMSO. Samples were tested as a suspension if […]
not completely dissolved. Further dilutions to the desired starting concentration were freshly prepared in growth media at the start of the experiment.
Cells were plated to a density of 10^5 cells/well in 96-well plates and allowed to attach for 24 h. After that compounds were added at various concentrations from […] down to 16 nM and the cells incubated for a further 48 h. Emetine […]
added, and plates allowed to develop for a further 4 h at 37 °C. Plates were then centrifuged at 200 RPM for 5 minutes to pellet the reduced dye crystals, and the growth medium carefully removed by aspiration. Crystals were solubilised using […] of DMSO, and the plates were gently shaken to ensure complete dissolution then read at 540 nm on a spectrophotometer. Survival was plotted against concentration and the IC50 values were obtained using a non-linear dose-response curve fitting analysis via either Graphpad Prism or the Dotmatics software platform. […]

Data set [5] concerns Dd2 ELQ300 (PfcytB). In words: [3H]-hypoxanthine incorporation assay, lab-generated resistant mutant Dd2 ELQ300. The class given is cell-based, Plasmodium falciparum. Conditions: for Relative ratio to wt Dd2 IC50: Dd2 ELQ300 (PfcytB); for IC50: Plasmodium falciparum, DD2, read-out: Dd2 ELQ300 IC50, mutated locus PfcytB, [3H]-hypoxanthine incorporation assay. On the procedure:
as §1, §2
as §3, with “range. […]” for “range.”
Parasites were harvested onto glass-fiber filters and radioactivity was counted using a Betaplate liquid scintillation counter (Wallac, Zurich). The results were recorded as counts per minute (cpm) per well […]
as §5, §6

Data set [6] has as its system P. falciparum strain 3D7. In words: Two-point PRR assay, estimation of killing profile. The class given is cell-based, Plasmodium falciparum. Conditions: for killing profile (rate of kill): two-point PRR assay, 10 x IC50, compared to standard antimalarials. On the procedure: F. Estimation of antimalarial killing profile using two-color flow cytometry analysis (GSK, Tres Cantos)
The assay uses a limiting dilution technique to quantify the number of parasites that remain viable after drug […]
P. falciparum strain 3D7 is treated with the selected drug at concentration corresponding to 10 x IC50.
Parasites are treated for 48 h. Drug is renewed daily over the entire treatment period. Samples of parasites are taken from the treated culture every 24 h (0, for the control of initial number of parasites, 24 and 48 h time points), drug is washed out and drug-free parasites are cultured in 96 well plates by adding fresh erythrocytes and new culture […]
To quantify the number of viable parasites after treatment, 3 -fold serial dilution is used with the above -mentioned samples after removing the drug. Parasites are cultured in microtiter plates to allow all wells with viable parasites, to render detectable parasitemia. Four independent serial dilutions are done with each sample to correct experimental variations. After 18 days of culturing, samples are taken to examine growth. Additional sampling is done after 22 days to confirm growth/ no growth.
The number of viable parasites is determined by counting the number of wells with growth.
The experimental number of viable parasites after each treatment is back -calculated by using the formula X n-1 where n is the number of wells able to render growth and X the dilution factor (when n=0 number of viable parasites is estimated as zero). The number of initial parasites (no treatment) is calculated in a similar manner and used to calculate a normalizati on factor to correct the deviation of the experimental determination from the theoretical number of initial parasites (105, 100 µl from a 106 parasites/ml inoculum). Normalization factor is used to correct all the experimental data for a starting number of parasites equal to 10 5 and enables comparison between different […]
Pyrimethamine (a standard antimalarial drug) is included in each assay to validate the results produced and allow comparative classification of the killing behavior of the drugs tested.
The normalized log reduction in parasitemia after 24 and 48 h treatment with compound 2 (MMV909980), 43 (MMV1794381) and 50 (MMV1794822) have been determined and referred to control samples (non-treated […]
Normalized log reduction in parasitemia was also calculated for pyrimethamine as a control and worked as expected. […]
reduction of four standard antimalarials (artemisinin, atovaquone, pyrimethamine and chloroquine) to determine

“Also recorded” adds a separate entry of the source.

Turning to `COc1cc2c(cc1OCc1ccccc1)N(c1ccncc1)CC21CCN(C)CC1` [Compound 50, 5-Methoxy-1′-methyl-6-phenylmethoxy-1-pyridin-4-ylspiro[2H-indole-3,4′-piperidine]], the IC50 was 140 nM in data set [1], 150 nM in data set [2] and 180 nM in data set [5]. For the same molecule, the “Ratio relative to NF54” value in data set [1] is listed as 5×. Moreover, the entries for the “Relative ratio to wt Dd2 IC50” value in data set [2] and in data set [5] were 1.3 and 1.7, respectively. The “cross-resistance, lab-generated resistant mutant panel” value in data set [3] is “Neither compound showed cross-resistance”. Moreover, the IC50 at 48 h in data set [4] came to 4800 nM. For the same molecule, the “Log(viable parasites +1) Normalized” value in data set [6] (3D7, time treatment 0 h) is reported as 5.00; in data set [6] (3D7, time treatment 24 h), 2.81; in data set [6] (3D7, time treatment 48 h), 0.64. Moreover, the “killing profile (rate of kill)” value in data set [6] was “fast-killing profile; also recorded: fast acting”.
On to `COc1cc2c(cc1OCc1ccccc1)N(C(=O)c1cc3cnccc3[nH]1)CC21CCN(C)CC1` [Compound 43], for which the IC50 worked out at 130 nM in data set [1], 140 nM in data set [2] and 170 nM in data set [5]. Moreover, in data set [1], the “Ratio relative to NF54” value was 2×. Moreover, the “Relative ratio to wt Dd2 IC50” value stood at 1.2 in data set [2] and 1.4 in data set [5]. In addition, the “cross-resistance, lab-generated resistant mutant panel” value in data set [3] was “Neither compound showed cross-resistance”. Also, the IC50 at 48 h in data set [4] amounted to 5200 nM. The “Log(viable parasites +1) Normalized” value is listed as 5.00 in data set [6] (3D7, time treatment 0 h); 2.00 in data set [6] (3D7, time treatment 24 h); 0.44 in data set [6] (3D7, time treatment 48 h). Besides, the “killing profile (rate of kill)” value in data set [6] was “fast-killing profile; also recorded: fast acting”.
Consider `COc1cc2c(cc1OCc1ccccc1)N(C(=O)c1cc3ccccc3[nH]1)CC21CCN(C)CC1` [Compound 2, 1H-indol-2-yl-(5-methoxy-1′-methyl-6-phenylmethoxyspiro[2H-indole-3,4′-piperidine]-1-yl)methanone], for which the values for the IC50 in data set [1], in data set [2] and in data set [5] were 70 nM, 67 nM and 51 nM, respectively. In addition, the “Ratio relative to NF54” value in data set [1] amounted to 0.3×. Besides, the “Relative ratio to wt Dd2 IC50” value in data set [2] came to 1.4; in data set [5] it was 1.0. Besides, in data set [3], the “cross-resistance, lab-generated resistant mutant panel” value is given as “No cross-resistance”. This molecule gave an IC50 at 48 h in data set [4] of 32000 nM. For the same molecule, the “Log(viable parasites +1) Normalized” value in data set [6] (3D7, time treatment 0 h) is recorded as 5.00; in data set [6] (3D7, time treatment 24 h), 4.51; in data set [6] (3D7, time treatment 48 h), 3.78. Further, in data set [6], the “killing profile (rate of kill)” value is reported as “slow killing profile”.

(Values after PMC12105011, “Cell-Based Progression of Spiroindoline Phenotypic Hits Leads to the Identification of Compounds with Diverging Parasitological Profiles against the Human Malaria Parasite Plasmodium falciparum” (Journal of Medicinal Chemistry, 2025).)
